According to ChEMBL document CHEMBL3792365, “Dioxol and dihydrodioxin analogs of 2- and 3-phenylacetonitriles as potent anti-cancer agents with nanomolar activity against a variety of human cancer cells” (2016):

Assays:
Format in all cases: functional
K562 = assay: Growth inhibition of human K562 cells at 10 uM after 48 hrs by sulforhodamine B assay; conditions: K562, 48 h, values are per cent of control
MDA-MB-435 = assay: Growth inhibition of human MDA-MB-435 cells at 10 uM after 48 hrs by sulforhodamine B assay; conditions: MDA-MB-435, 48 h, values are per cent of control
[1] = Growth inhibition of human COLO205 cells at 10 uM after 48 hrs by sulforhodamine B assay; conditions: COLO 205, 48 h, values are per cent of control
[2] = Growth inhibition of human SW620 cells at 10 uM after 48 hrs by sulforhodamine B assay; conditions: SW-620, 48 h, values are per cent of control
MDA-MB-468 = assay: Growth inhibition of human MDA-MB-468 cells at 10 uM after 48 hrs by sulforhodamine B assay; conditions: MDA-MB-468, 48 h, values are per cent of control
[3] = Growth inhibition of human HCT116 cells at 10 uM after 48 hrs by sulforhodamine B assay; conditions: HCT-116, 48 h, values are per cent of control
ACHN = assay: Growth inhibition of human ACHN cells at 10 uM after 48 hrs by sulforhodamine B assay; conditions: values are per cent of control
T47D = assay: Growth inhibition of human T47D cells at 10 uM after 48 hrs by sulforhodamine B assay; conditions: values are per cent of control
KM12 = assay: Growth inhibition of human KM12 cells at 10 uM after 48 hrs by sulforhodamine B assay; conditions: KM12, 48 h, values are per cent of control
786-0 = assay: Growth inhibition of human 786-0 cells at 10 uM after 48 hrs by sulforhodamine B assay; conditions: 786-0, 48 h, values are per cent of control
[4] = Growth inhibition of human SF268 cells at 10 uM after 48 hrs by sulforhodamine B assay; conditions: SF-268, 48 h, values are per cent of control
[5] = Growth inhibition of human UACC62 cells at 10 uM after 48 hrs by sulforhodamine B assay; conditions: UACC-62, 48 h, values are per cent of control
[6] = Growth inhibition of human TK10 cells at 10 uM after 48 hrs by sulforhodamine B assay; conditions: TK-10, 48 h, values are per cent of control
[7] = Growth inhibition of human HOP62 cells at 10 uM after 48 hrs by sulforhodamine B assay; conditions: HOP-62, 48 h, values are per cent of control
[8] = Growth inhibition of human SF539 cells at 10 uM after 48 hrs by sulforhodamine B assay; conditions: SF-539, 48 h, values are per cent of control
SN12C = assay: Growth inhibition of human SN12C cells at 10 uM after 48 hrs by sulforhodamine B assay; conditions: values are per cent of control
NCI-H226 = assay: Growth inhibition of human NCI-H226 cells at 10 uM after 48 hrs by sulforhodamine B assay; conditions: NCI-H226, 48 h, values are per cent of control
MDA-MB-231 = assay: Growth inhibition of human MDA-MB-231 cells at 10 uM after 48 hrs by sulforhodamine B assay; conditions: MDA-MB-231, 48 h, values are per cent of control
SR = assay: Growth inhibition of human SR cells at 10 uM after 48 hrs by sulforhodamine B assay; conditions: values are per cent of control
[9] = Growth inhibition of human SNB75 cells at 10 uM after 48 hrs by sulforhodamine B assay; conditions: SNB-75, 48 h, values are per cent of control
NCI-H322M = assay: Growth inhibition of human NCI-H322M cells at 10 uM after 48 hrs by sulforhodamine B assay; conditions: values are per cent of control
[10] = Growth inhibition of human Caki1 cells at 10 uM after 48 hrs by sulforhodamine B assay; conditions: CAKI-1, 48 h, values are per cent of control
SK-MEL-2 = assay: Growth inhibition of human SK-MEL-2 cells at 10 uM after 48 hrs by sulforhodamine B assay; conditions: SK-MEL-2, 48 h, values are per cent of control
[11] = Growth inhibition of human SNB19 cells at 10 uM after 48 hrs by sulforhodamine B assay; conditions: SNB-19, 48 h, values are per cent of control
[12] = Growth inhibition of human DU145 cells at 10 uM after 48 hrs by sulforhodamine B assay; conditions: DU-145, 48 h, values are per cent of control
SK-MEL-28 = assay: Growth inhibition of human SK-MEL-28 cells at 10 uM after 48 hrs by sulforhodamine B assay; conditions: SK-MEL-28, 48 h, values are per cent of control
NCI-H460 = assay: Growth inhibition of human NCI-H460 cells at 10 uM after 48 hrs by sulforhodamine B assay; conditions: NCI-H460, 48 h, values are per cent of control
M14 = assay: Growth inhibition of human M14 cells at 10 uM after 48 hrs by sulforhodamine B assay; conditions: M14, 48 h, values are per cent of control
A549 = assay: Growth inhibition of human A549/ATCC cells at 10 uM after 48 hrs by sulforhodamine B assay; conditions: A549, 48 h, values are per cent of control
NCI-H522 = assay: Growth inhibition of human NCI-H522 cells at 10 uM after 48 hrs by sulforhodamine B assay; conditions: NCI-H522, 48 h, values are per cent of control
[13] = Growth inhibition of human RXF393 cells at 10 uM after 48 hrs by sulforhodamine B assay; conditions: RXF 393, 48 h, values are per cent of control
[14] = Growth inhibition of human IGROV1 cells at 10 uM after 48 hrs by sulforhodamine B assay; conditions: IGROV-1, 48 h, values are per cent of control
[15] = Growth inhibition of human SKOV3 cells at 10 uM after 48 hrs by sulforhodamine B assay; conditions: SK-OV-3, 48 h, values are per cent of control
[16] = Growth inhibition of human NCI-ADR-RES cells at 10 uM after 48 hrs by sulforhodamine B assay; conditions: values are per cent of control
SK-MEL-5 = assay: Growth inhibition of human SK-MEL-5 cells at 10 uM after 48 hrs by sulforhodamine B assay; conditions: SK-MEL-5, 48 h, values are per cent of control
[17] = Growth inhibition of human OVCAR4 cells at 10 uM after 48 hrs by sulforhodamine B assay; conditions: OVCAR-4, 48 h, values are per cent of control
[18] = Growth inhibition of human HCT15 cells at 10 uM after 48 hrs by sulforhodamine B assay; conditions: HCT-15, 48 h, values are per cent of control
[19] = Growth inhibition of human BT549 cells at 10 uM after 48 hrs by sulforhodamine B assay; conditions: BT-549, 48 h, values are per cent of control
HT-29 = assay: Growth inhibition of human HT-29 cells at 10 uM after 48 hrs by sulforhodamine B assay; conditions: HT-29, 48 h, values are per cent of control
[20] = Growth inhibition of human HCC2998 cells at 10 uM after 48 hrs by sulforhodamine B assay; conditions: HCC 2998, 48 h, values are per cent of control

Row | SMILES | growth, % of control at 10 µM (K562) [%] | growth, % of control at 10 µM (MDA-MB-435) [%] | growth, % of control at 10 µM [1] [%] | growth, % of control at 10 µM [2] [%] | growth, % of control at 10 µM (MDA-MB-468) [%] | growth, % of control at 10 µM [3] [%] | growth, % of control at 10 µM (ACHN) [%] | growth, % of control at 10 µM (T47D) [%] | growth, % of control at 10 µM (KM12) [%] | growth, % of control at 10 µM (786-0) [%] | growth, % of control at 10 µM [4] [%] | growth, % of control at 10 µM [5] [%] | growth, % of control at 10 µM [6] [%] | growth, % of control at 10 µM [7] [%] | growth, % of control at 10 µM [8] [%] | growth, % of control at 10 µM (SN12C) [%] | growth, % of control at 10 µM (NCI-H226) [%] | growth, % of control at 10 µM (MDA-MB-231) [%] | growth, % of control at 10 µM (SR) [%] | growth, % of control at 10 µM [9] [%] | also measured
1 | COc1cc(/C(C#N)=C/c2ccc3c(c2)OCCO3)cc(OC)c1OC | 7.5 | -22.2 | -74.4 | 25.2 | -15.1 | -12.3 | 34.4 | 84.4 | 2 | 14.8 | 24.6 | 45.4 | 48.5 | 40.8 | 2.5 | 34.5 | 43.9 | 13.7 | -11 | 17.1 | growth, % of control at 10 µM (NCI-H322M): 24.2%; growth, % of control at 10 µM [10]: 20%; growth, % of control at 10 µM (SK-MEL-2): 24.1%; growth, % of control at 10 µM [11]: 51.2%; growth, % of control at 10 µM [12]: 6.7%; growth, % of control at 10 µM (SK-MEL-28): 63%; growth, % of control at 10 µM (NCI-H460): 5.2%; growth, % of control at 10 µM (M14): 5.7%; growth, % of control at 10 µM (A549): 21.1%; growth, % of control at 10 µM (NCI-H522): -27%; growth, % of control at 10 µM [13]: 41.8%; growth, % of control at 10 µM [14]: 25.5%; growth, % of control at 10 µM [15]: 17.6%; growth, % of control at 10 µM [16]: 17%; growth, % of control at 10 µM (SK-MEL-5): -38%; growth, % of control at 10 µM [17]: 44.9%; growth, % of control at 10 µM [18]: 16.5%; growth, % of control at 10 µM [19]: -17.2%; growth, % of control at 10 µM (HT-29): 0.4%; growth, % of control at 10 µM [20]: 14.9%
2 | N#C/C(=C\c1cc2ccccc2s1)c1ccc2c(c1)OCO2 | 18.8 | -37.2 | -33.9 | 21 | 14.1 | 11.6 | 38.8 | 70.4 | 6 | 44.7 | 23.8 | 24 | 42.7 | 58.5 | -10.1 | 25.3 | 28.7 | 24.3 | 13.5 | 0.5 | growth, % of control at 10 µM (NCI-H322M): 40.9%; growth, % of control at 10 µM [10]: 41.2%; growth, % of control at 10 µM (SK-MEL-2): 29.2%; growth, % of control at 10 µM [11]: 46.4%; growth, % of control at 10 µM [12]: 5.1%; growth, % of control at 10 µM (SK-MEL-28): 60.6%; growth, % of control at 10 µM (NCI-H460): 9.7%; growth, % of control at 10 µM (M14): 20.6%; growth, % of control at 10 µM (A549): 17.2%; growth, % of control at 10 µM (NCI-H522): -20.5%; growth, % of control at 10 µM [13]: -2.6%; growth, % of control at 10 µM [14]: 34.3%; growth, % of control at 10 µM [15]: 20.7%; growth, % of control at 10 µM [16]: -1.9%; growth, % of control at 10 µM (SK-MEL-5): 16.6%; growth, % of control at 10 µM [17]: 60.2%; growth, % of control at 10 µM [18]: 20.4%; growth, % of control at 10 µM [19]: 56.4%; growth, % of control at 10 µM (HT-29): 5%; growth, % of control at 10 µM [20]: 6.4%
3 | N#C/C(=C\c1ccc(Cl)cc1Cl)c1ccc2c(c1)OCO2 | 76.2 | 50.7 | 99 | 106 | 82.1 | 99.5 | 102 | 76.3 | 76 | 91.4 | 94.4 | 81.9 | 90.7 | 88 | 93.8 | 102 | 113 | 119 | 68.7 | 76.2 | growth, % of control at 10 µM (NCI-H322M): 86.4%; growth, % of control at 10 µM [10]: 86.9%; growth, % of control at 10 µM (SK-MEL-2): 98.9%; growth, % of control at 10 µM [11]: 99.8%; growth, % of control at 10 µM [12]: 99.3%; growth, % of control at 10 µM (SK-MEL-28): 98.3%; growth, % of control at 10 µM (NCI-H460): 103%; growth, % of control at 10 µM (M14): 88.7%; growth, % of control at 10 µM (A549): 92.3%; growth, % of control at 10 µM (NCI-H522): 75.8%; growth, % of control at 10 µM [13]: 101%; growth, % of control at 10 µM [14]: 97.9%; growth, % of control at 10 µM [15]: 97.3%; growth, % of control at 10 µM [16]: 100%; growth, % of control at 10 µM (SK-MEL-5): 98.9%; growth, % of control at 10 µM [17]: 88.7%; growth, % of control at 10 µM [18]: 82.9%; growth, % of control at 10 µM [19]: 86.4%; growth, % of control at 10 µM (HT-29): 89.7%; growth, % of control at 10 µM [20]: 94.8%
